Laboratory results published in patent US10246462B2, “Chemokine receptor modulators and uses thereof” (FLX Bio, Inc., priority 2016, dated 2019).
Counter-ions that a name gives are not always drawn.

The compounds below were run against CCR4 (Homo sapiens (Human), UniProt P51679) (assay: Calcium mobilization (Ca Flux) assay).
Sequence of CCR4 (P51679 whole entry): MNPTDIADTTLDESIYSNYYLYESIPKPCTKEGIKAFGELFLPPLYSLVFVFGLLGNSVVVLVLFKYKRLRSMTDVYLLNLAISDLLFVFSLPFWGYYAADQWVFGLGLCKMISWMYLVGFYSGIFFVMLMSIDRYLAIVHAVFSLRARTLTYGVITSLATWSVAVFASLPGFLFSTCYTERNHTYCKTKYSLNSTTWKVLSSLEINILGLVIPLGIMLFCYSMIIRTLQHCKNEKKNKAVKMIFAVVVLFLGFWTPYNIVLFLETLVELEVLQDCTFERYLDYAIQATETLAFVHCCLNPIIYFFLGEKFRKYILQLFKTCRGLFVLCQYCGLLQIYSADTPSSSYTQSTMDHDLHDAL
Format: cell-based
Description: Calcium Mobilization Assay. Calcium mobilization experiments may be performed by labeling the human T-cell line CEM with […] dye (45 min at room temperature), washing with PBS, and re-suspending into flux buffer (HBSS with 1% FBS).
In the case of `C[C@@H]1CC(c2cnc3c(C#N)nn([C@H](C)c4ccc(Cl)cc4Cl)c3n2)=CC[C@@H]1N1CCC[C@H]1CO` [Example 76, 1-((R)-1-(2,4-Dichlorophenyl)ethyl)-6-((4S,5R)-4-((S)-2-(hydroxymethyl)pyrrolidin-1-yl)-5-methylcyclohex-1-en-1-yl)-1H-pyrazolo[3,4-b]pyrazine-3-carbonitrile], the IC50 is reported as less than 100 nM.
With `Cc1nn([C@H](C)c2ccc(Cl)cc2Cl)c2nc(C3=CCC(N4CCC[C@H]4CCC(N)=O)[C@H](C)C3)cnc12` (stereo partly drawn) [Example 77, 3-((S)-1-((1S,6R)-4-(1-((R)-1-(2,4-Dichlorophenyl)ethyl)-3-methyl-1H-pyrazolo[3,4-b]pyrazin-6-yl)-6-methylcyclohex-3-en-1-yl)pyrrolidin-2-yl)propanamide 2,2,2-trifluoroacetae] the IC50 was less than 100 nM.
With `Cc1nn([C@H](C)c2ccc(Cl)cc2Cl)c2nc(C3=CCC(N4CCC[C@H]4CO)C(C)C3)cnc12` (stereo partly drawn) [Example 78, ((2S)-1-(4-(1-((R)-1-(2,4-Dichlorophenyl)ethyl)-3-methyl-1H-pyrazolo[3,4-b]pyrazin-6-yl)-6-methylcyclohex-3-en-1-yl)pyrrolidin-2-yl)methanol] the IC50 was less than 100 nM.
Compound `CC1CC(c2cnc3c(C#N)nn([C@H](C)c4ccc(Cl)cc4Cl)c3n2)=CCC1N1CCC[C@H]1C(N)=O` (stereo partly drawn) [Example 79, (2S)-1-(4-(3-Cyano-1-((R)-1-(2,4-dichlorophenyl)ethyl)-1H-pyrazolo[3,4-b]pyrazin-6-yl)-6-methylcyclohex-3-en-1-yl)pyrrolidine-2-carboxamide hydrochloride] has an IC50 of less than 100 nM.
Compound `C[C@H](c1ccc(Cl)cc1Cl)n1nc(C#N)c2ncc(C3=CC[C@@H](N4CCC[C@H]4C(N)=O)[C@@H](C)C3)nc21` [Example 80, (S)-1-((1R,6S)-4-(3-Cyano-1-((R)-1-(2,4-dichlorophenyl)ethyl)-1H-pyrazolo[3,4-b]pyrazin-6-yl)-6-methylcyclohex-3-en-1-yl)pyrrolidine-2-carboxamide hydrochloride] has an IC50 of 100 to 500 nM.
Compound `C[C@@H]1CC(c2cnc3c(C#N)nn([C@H](C)c4ccc(Cl)cc4Cl)c3n2)=CC[C@@H]1N1CCC[C@H]1CN` [Example 81, 6-((4S,5R)-4-((S)-2-(Aminomethyl)pyrrolidin-1-yl)-5-methylcyclohex-1-en-1-yl)-1-((R)-1-(2,4-dichlorophenyl)ethyl)-1H-pyrazolo[3,4-b]pyrazine-3-carbonitrile hydrochloride] has an IC50 of 100 to 500 nM.
`C[C@@H]1CC(c2cnc3c(C#N)nn([C@H](C)c4ccc(Cl)cc4Cl)c3n2)=CC[C@@H]1N1CCC[C@H]1CNS(C)(=O)=O` [Example 82, N—(((S)-1-((1S,6R)-4-(3-Cyano-1-((R)-1-(2,4-dichlorophenyl)ethyl)-1H-pyrazolo[3,4-b]pyrazin-6-yl)-6-methylcyclohex-3-en-1-yl)pyrrolidin-2-yl)methyl)methanesulfonamide hydrochloride] gave an IC50 of 100 to 500 nM.
`C[C@@H]1CC(c2cnc3c(C#N)nn([C@H](C)c4ccc(Cl)cc4Cl)c3n2)=CCC1N1CCC[C@H]1C` (stereo partly drawn) [Example 83] gave an IC50 of less than 100 nM.
For `Cc1nn([C@H](C)c2ccc(Cl)cc2Cl)c2nc(C3=CC[C@H](N4CCC[C@H]4C(N)=O)[C@H](C)C3)cnc12` [Example 86, (S)-1-((1S,6R)-4-(1-((R)-1-(2,4-Dichlorophenyl)ethyl)-3-methyl-1H-pyrazolo[3,4-b]pyrazin-6-yl)-6-methylcyclohex-3-en-1-yl)pyrrolidine-2-carboxamide hydrochloride], the IC50 was 100 to 500 nM.
With `C[C@@H]1CC(c2cnc3c(C#N)nn([C@H](C)c4ccc(Cl)cc4Cl)c3n2)=CCC1N1CCC[C@H]1C(O)CS(C)(=O)=O` (stereo partly drawn) [Example 87, 1-((R)-1-(2,4-Dichlorophenyl)ethyl)-6-((4S,5R)-4-((2S)-2-(1-hydroxy-2-(methylsulfonyl)ethyl)pyrrolidin-1-yl)-5-methylcyclohex-1-en-1-yl)-1H-pyrazolo[3,4-b]pyrazine-3-carbonitrile hydrochloride] the IC50 was less than 100 nM.
Work on `CC1CC(c2cnc3c(C(F)(F)F)nn([C@H](C)c4ccc(Cl)cc4Cl)c3n2)=CCC1N1CCC[C@H]1C` (stereo partly drawn) [Example 88, 1-((R)-1-(2,4-Dichlorophenyl)ethyl)-6-(5-methyl-4-((R)-2-methylpyrrolidin-1-yl)cyclohex-1-en-1-yl)-3-(trifluoromethyl)-1H-pyrazolo[3,4-b]pyrazine trifluoroacetic acid] yielded an IC50 of 100 to 500 nM.
`CC1CC(c2cnc3c(C(F)(F)F)nn([C@H](C)c4ccc(Cl)cc4Cl)c3n2)=CCC1N1CCC[C@H]1CO` (stereo partly drawn) [Example 89] was tested, and the IC50 was 100 to 500 nM.
Work on `C[C@@H]1CN(c2cnc3c(C#N)nn([C@H](C)c4ccc(Cl)cc4F)c3n2)CC[C@@H]1N1CCC[C@H]1CCC(=O)O` [Example 90, 3-((S)-1-((3R,4S)-1-(1-((R)-1-(4-chloro-2-fluorophenyl)ethyl)-3-cyano-1H-pyrazolo[3,4-b]pyrazin-6-yl)-3-methylpiperidin-4-yl)pyrrolidin-2-yl)propanoic acid hydrochloric acid] yielded an IC50 of less than 100 nM.
For `CNC(=O)[C@@H]1CCCN1[C@H]1CC=C(c2cnc3c(C#N)nn([C@H](C)c4ccc(Cl)cc4Cl)c3n2)C[C@H]1C` [Example 91, (S)-1-((1S,6R)-4-(3-Cyano-1-((R)-1-(2,4-dichlorophenyl)ethyl)-1H-pyrazolo[3,4-b]pyrazin-6-yl)-6-methylcyclohex-3-en-1-yl)-N-methylpyrrolidine-2-carboxamide trifluoroacetate], the IC50 was 100 to 500 nM.
`CCN(CC1(O)COC1)C1CC=C(c2cnc3c(C#N)nn([C@H](C)c4ccc(Cl)cc4Cl)c3n2)CC1C` (stereo partly drawn) [Example 92, 1-((R)-1-(2,4-dichlorophenyl)ethyl)-6-(4-(ethyl((3-hydroxyoxetan-3-yl)methyl)amino)-5-methylcyclohex-1-en-1-yl)-1H-pyrazolo[3,4-b]pyrazine-3-carbonitrile] showed an IC50 of 100 to 500 nM.
